This note sets out measurements from US20230086706A1, “Compounds for promoting follicle maturation” (Aarhus Universitet, priority 2020, published 2023).

Data set [1] concerns ID8 Mouse Ovarian Surface Epithelial Cell Line. The data set can be described thus: Toxicity assay (cell morphology by light microscopy). The format is cell-based. Particulars: 1 μM compound, cells grown for 2 days, morphology checked using light microscopy. The method, then:
Immediately, 1 μM compound was added to the media and cells were grown for 2 days and morphology checked using light microscopy.

The test system of data set [2] is ovaries (primordial, primary and secondary follicles). The data set can be described thus: Evaluation of follicle numbers after ovary organ culture with compound. The format is cell-based, C57BL/6j×CBA F1 hybrid mice. Particulars: ovaries of 7-day-old female pups cultured four days; 0.5 μM and 1 μM for 582 and 583, 25 μM for 798 and 798 (so in the source). On the procedure:
C57BL/6j×CBA F1 hybrid mice (Janvier Labs, France) were housed and bred in the animal facilities at Department of Biomedicine, Aarhus University. Animals were housed in a 12:12 h controlled light-dark environment and were provided with food and water ad libitum. 7-day-old female pups were used for the study.
Pups were sacrificed and ovaries were excised. Using a stereomicroscope MZ75 (Leica Microsystems, Germany), excess tissue was removed. […] 200-300 μL of culture medium was added to the well below the insert and up to two ovaries were placed on the membrane of each insert. […] Up to six wells in the 24-well plate were used for inserts. […] The ovaries were cultured at 37° C., 5% CO2 for four days. 150 μL of medium was replaced every other day with fresh culture medium.
Ovaries kept in organ culture for four days were fixed for 24 hours in 4% paraformaldehyde solution at 4° C. After fixation, ovaries were dehydrated in ethanol series using 70%, 96% and 99.9% ethanol. Xylene was used as clearing agent before the ovaries were infiltrated in paraffin wax. 5 μm-sections of samples in paraffin were cut using a microtome (Cut 6062, SLEE medical, Germany). […] The samples were then rinsed in dH2O, stained in hematoxylin for 40 sec., rinsed in dH2O for 5 min., and stained in eosin for 46 sec. The samples were dehydrated in ethanol: 2×2 min. in 96% ethanol, 2×2 min in 99.9% ethanol, and finally cleared up in xylene for at least 30 min before mounting the samples using Eukitt mounting medium (Sigma-Aldrich) and cover glass. […] The follicles of every 3rd to 4th section of each ovary were counted and the distribution of follicles in the different stages in percentage was determined.

`NC(=O)c1ccc[n+](Cc2ccccc2)c1` [Compound 582, 1-benzyl-3-carbamoylpyridin-1-ium]: the “toxicity to the grown cells / alteration of the morphology of the cells” value in data set [1] is listed as “not to alter the morphology of the cells nor to be toxic to the grown cells”. In data set [2], the “overall appearance and size of the ovaries in culture (visual inspection of ovarian sections)” value (shortened to “overall appearance and size”) is “healthy and the size was normal, no shrinkage was observed”. Take `C[n+]1cccc(C(N)=O)c1` [Compound 583, 3-carbamoyl-1-methylpyridin-1-ium]: the “toxicity to the grown cells / alteration of the morphology of the cells” value in data set [1] is reported as “not to alter the morphology of the cells nor to be toxic to the grown cells”. Also, in data set [2], the “overall appearance and size” value is “healthy and the size was normal, no shrinkage was observed”. `NC(=O)c1ccc[n+](C2CCOCC2)c1` [Compound 798, 3-carbamoyl-1-(tetrahydro-2H-pyran-4-yl)pyridin-1-ium]: the “toxicity to the grown cells / alteration of the morphology of the cells” value in data set [1] was “not to alter the morphology of the cells nor to be toxic to the grown cells”. Also, in data set [2], the “overall appearance and size” value is “healthy and the size was normal, no shrinkage was observed”. For the compound `CC1=C2C[C@H]3[C@@H](CC=C4C[C@@H](O)CC[C@@]43C)[C@@H]2CC[C@]12O[C@@H]1C[C@H](C)CN[C@H]1[C@H]2C` [cyclopamine, Cyclopamine, reference compound], in data set [1], the “toxicity to the grown cells / alteration of the morphology of the cells” value is reported as “not to alter the morphology of the cells nor to be toxic to the grown cells”.
